Measured values reported in PMC11133627, “CATH-2-derived antimicrobial peptide inhibits multidrug-resistant Escherichia coli infection in chickens” (Frontiers in Cellular and Infection Microbiology, 2024).
≈ marks a conversion by molar mass, not a printed value.

What was measured:
[1] = system: E. coli clinical isolate E14; assay: Drug-sensitivity test (paper disc, inhibition zone); type: cell-based, Escherichia coli; design: key to Drug sensitivity of E. coli E14: R: resistant strains; I: intermediate strains; S: sensitive strains
Experimental: (§1) E. coli (ATCC 8739) and clinical isolates of E. coli (E1, E9, E12, E14, E16, and E18) were stored at the Animal Biochemical Laboratory of Shanxi Agricultural University and grown in Luria-Bertani (LB) broth as previously reported ([Zhao et al., 2021]). Circular 6 mm paper pieces were prepared with filter paper and autoclaved for sterilization. […] Then, 0.5 mL of antibiotic solution was added to 100 sterilized papers. Subsequently, the paper pieces were fully infiltrated and dried in a vacuum drying oven to produce antibiotic susceptibility papers. The E. coli strain was retrieved from the -20°C freezer and activated by incubating it on LB agar media at 37°C for 24h. Individual colonies were selected and transferred to LB liquid media. Thereafter, the E. coli suspension was obtained by shaking at 37°C and 160 r/min for 18h. The obtained suspension was centrifuged at 5000 r/min for 5min, after which the supernatant was discarded, and the bacteria were resuspended in fresh medium to a concentration of 1×10^6 CFU/mL. Two hundred microliters of the bacterial suspension mentioned above was spread evenly onto LB agar medium. Then, the antibiotic susceptibility papers were placed on the medium surface using sterile tweezers. After 24h of incubation at 37°C, the diameter of the inhibition zone was measured to determine the susceptibility of E. coli to antibiotics.

[2] = system: E. coli clinical isolate E12; assay: as above; type: cell-based, Escherichia coli; design: key to Drug sensitivity of E. coli E12: R: resistant strains; I: intermediate strains; S: sensitive strains
Experimental: as §1

[3] = system: E. coli clinical isolate E16; assay: as above; type: cell-based, Escherichia coli; design: key to Drug sensitivity of E. coli E16: R: resistant strains; I: intermediate strains; S: sensitive strains
Experimental: as §1

[4] = system: E. coli clinical isolate E1; type: cell-based; design: key: R: resistant strains; I: intermediate strains; S: sensitive strains; details: 6 mm antibiotic paper on LB agar, 1×10^6 CFU/mL, 24h 37°C, inhibition zone diameter
Experimental: as §1

E. coli (ATCC 8739) [5] = assay: Drug-sensitivity test (paper disc, inhibition zone); type: cell-based, Escherichia coli; design: key: R: resistant strains; I: intermediate strains; S: sensitive strains; details: 6 mm antibiotic paper on LB agar, 1×10^6 CFU/mL, 24h 37°C, inhibition zone diameter
Experimental: as §1

[6] = system: E. coli clinical isolate E9; assay: as above; type: cell-based, Escherichia coli; design: key: R: resistant strains; I: intermediate strains; S: sensitive strains; details: 6 mm antibiotic paper on LB agar, 1×10^6 CFU/mL, 24h 37°C, inhibition zone diameter
Experimental: as §1

[7] = system: E. coli clinical isolate E18; assay: as above; type: cell-based, Escherichia coli; design: key: R: resistant strains; I: intermediate strains; S: sensitive strains; details: 6 mm antibiotic paper on LB agar, 1×10^6 CFU/mL, 24h 37°C, inhibition zone diameter
Experimental: as §1

[8] = system: E. coli clinical isolate E1; assay: microbe, parasite or virus in culture; details: Escherichia coli
Experimental: (§2) The minimum inhibitory concentrations (MICs) of the AMPs were determined using the microbroth dilution technique ([van Harten et al., 2021]). One hundred microliters of bacterial suspension at a concentration of 1×10^6 CFU/mL was pipetted into a 96-well plate. Then, 100 μL of AMP or gentamicin at various concentrations was added, while the bacterial suspension without AMPs and blank medium were used as controls.

E. coli (ATCC 8739) [9] = assay: Sterilization kinetics assay; type: cell-based, Escherichia coli; details: 8 μg/mL, 1×10^5 CFU/mL, 37°C, colony count
Experimental: The sterilization kinetics assay was performed following previous methods ([Peng et al., 2022]; [Yong Fang et al., 2023]). […] At each time point, 10 μL of sample was diluted in 1 mL of PBS, and 100 μL of the dilution was plated on LB agar plates. After incubating at 37°C for 24h, the number of colonies was counted.

[10] = system: E. coli clinical isolate E14; assay: microbe, parasite or virus in culture; type: cell-based, Escherichia coli; details: Escherichia coli
Experimental: as §2

E. coli (ATCC 8739) [11] = assay: microbe, parasite or virus in culture; type: cell-based, Escherichia coli; details: Escherichia coli, ATCC8739
Experimental: as §2

[12] = system: E. coli clinical isolate E12; assay: microbe, parasite or virus in culture; type: cell-based, Escherichia coli; details: Escherichia coli
Experimental: as §2

[13] = system: E. coli clinical isolate E16; assay: microbe, parasite or virus in culture; type: cell-based, Escherichia coli; details: Escherichia coli
Experimental: as §2

[14] = system: E. coli clinical isolate E9; assay: microbe, parasite or virus in culture; type: cell-based, Escherichia coli; details: Escherichia coli
Experimental: as §2

[15] = system: E. coli clinical isolate E18; assay: microbe, parasite or virus in culture; type: cell-based, Escherichia coli; details: Escherichia coli
Experimental: as §2

E. coli (E16) = assay: Chicken infection with MDR E. coli; type: in vivo
Experimental: Except for the blank control group injected with 500 μL of normal saline, the other four groups were injected with 500 μL of 3×10^9 CFU/mL E. coli (E16) into the pectoral muscles. […] Clinical symptoms and were observed and documented for the chickens in each group after infection. After 72h, the chickens in each group were euthanized and examined for internal organ damage. Paraffin sections were prepared for microscopic examination of pathological changes. Under sterile conditions, 1 g samples of heart, liver, and spleen were collected, and each sample was supplemented with 20 mL of sterile PBS. After thorough grinding, the sample was diluted to the appropriate multiple, and 100 μL of the diluent was spread onto LB agar medium. The plates were incubated for 24h, after which the colonies were counted.

[16] = 6 mm antibiotic paper on LB agar, 1×10^6 CFU/mL, 24h 37°C, inhibition zone diameter

CNC(C)C1CCC(N)C(OC2C(N)CC(N)C(OC3OCC(C)(O)C(NC)C3O)C2O)O1 (stereo not shown) [gentamicin, reference compound]
Drug sensitivity of E. coli E14 [1, 16]: S | Drug sensitivity of E. coli E14 (in words) ([1]; paper disc test): susceptible | Drug sensitivity of E. coli E12 [2, 16]: S | Drug sensitivity of E. coli E12 (in words) ([2]; paper disc test): susceptible | Drug sensitivity of E. coli E16 [3, 16]: S | Drug sensitivity of E. coli E16 (in words) ([3]; paper disc test): susceptible | Drug sensitivity of E. coli E1 [4]: R | Drug sensitivity of E. coli ATCC 8739 (E. coli (ATCC 8739) [5]): I | Drug sensitivity of E. coli E9 [6]: I | Drug sensitivity of E. coli E18 [7]: R | MIC ([8]; 18 h, read-out: MIC against E. coli E1): 64 µg/mL (≈ 134 µM) | MBC ([8]; 24 h, read-out: MBC against E. coli E1): 64 µg/mL (≈ 134 µM) | Time for complete bacterial eradication (E. coli (ATCC 8739) [9]): ≤ 60 min | MBC ([10]; 50 μL from fully inhibited wells plated on LB agar, colonies counted after 24h 37°C, read-out: MBC against E. coli E14): 4 µg/mL (≈ 8.38 µM) | MIC ([10]; microbroth dilution, 1×10^6 CFU/mL, 37°C 18h, turbidity, read-out: MIC against E. coli E14): 4 µg/mL (≈ 8.38 µM) | MBC (E. coli (ATCC 8739) [11]; 50 μL from fully inhibited wells plated on LB agar, colonies counted after 24h 37°C, read-out: MBC against E. coli ATCC 8739): 8 µg/mL (≈ 16.8 µM) | MIC (E. coli (ATCC 8739) [11]; microbroth dilution, 1×10^6 CFU/mL, 37°C 18h, turbidity, read-out: MIC against E. coli ATCC 8739): 8 µg/mL (≈ 16.8 µM) | MBC ([12]; 50 μL from fully inhibited wells plated on LB agar, colonies counted after 24h 37°C, read-out: MBC against E. coli E12): 4 µg/mL (≈ 8.38 µM) | MIC ([12]; microbroth dilution, 1×10^6 CFU/mL, 37°C 18h, turbidity, read-out: MIC against E. coli E12): 4 µg/mL (≈ 8.38 µM) | MBC ([13]; 50 μL from fully inhibited wells plated on LB agar, colonies counted after 24h 37°C, read-out: MBC against E. coli E16): 4 µg/mL (≈ 8.38 µM) | MIC ([13]; microbroth dilution, 1×10^6 CFU/mL, 37°C 18h, turbidity, read-out: MIC against E. coli E16): 4 µg/mL (≈ 8.38 µM) | MBC ([14]; 50 μL from fully inhibited wells plated on LB agar, colonies counted after 24h 37°C, read-out: MBC against E. coli E9): 8 µg/mL (≈ 16.8 µM) | MIC ([14]; microbroth dilution, 1×10^6 CFU/mL, 37°C 18h, turbidity, read-out: MIC against E. coli E9): 8 µg/mL (≈ 16.8 µM) | MBC ([15]; 50 μL from fully inhibited wells plated on LB agar, colonies counted after 24h 37°C, read-out: MBC against E. coli E18): 128 µg/mL (≈ 268 µM) | MIC ([15]; microbroth dilution, 1×10^6 CFU/mL, 37°C 18h, turbidity, read-out: MIC against E. coli E18): 64 µg/mL (≈ 134 µM) | 3-day mortality rate (E. coli (E16); 200 μg/mL, 500 μL into pectoral muscle 4h after 1.5×10^9 CFU E16): 10% | Bacterial loads in the heart, liver and spleen (in words) (E. coli (E16); after 3 days of infection, vs infected untreated): significantly reduced | Organ lesions of heart, liver, intestine (in words) (E. coli (E16); autopsy, vs E. coli infection group): significant reduction in organ lesions
